Source: ChEMBL document CHEMBL2057108 (Bioorg Med Chem Lett, 2012)
Activity calls are given as the source filed them. No cut-off for these calls is given here.

Tests used:
Rattus norvegicus [1] = experiment: 5-HT4 receptor-mediated esophageal relaxation in anesthetized rat (following intraduodenal administration) using digital sonomicrometry; assay type: functional, organism-based; conditions: Sprague-Dawley
[2] = target: 5-hydroxytryptamine receptor 6 (Homo sapiens) (UniProt P50406); experiment: Inhibition of 5HT6 receptor at 10 uM
5-hydroxytryptamine receptor 6 (Homo sapiens), sequence (P50406 whole entry): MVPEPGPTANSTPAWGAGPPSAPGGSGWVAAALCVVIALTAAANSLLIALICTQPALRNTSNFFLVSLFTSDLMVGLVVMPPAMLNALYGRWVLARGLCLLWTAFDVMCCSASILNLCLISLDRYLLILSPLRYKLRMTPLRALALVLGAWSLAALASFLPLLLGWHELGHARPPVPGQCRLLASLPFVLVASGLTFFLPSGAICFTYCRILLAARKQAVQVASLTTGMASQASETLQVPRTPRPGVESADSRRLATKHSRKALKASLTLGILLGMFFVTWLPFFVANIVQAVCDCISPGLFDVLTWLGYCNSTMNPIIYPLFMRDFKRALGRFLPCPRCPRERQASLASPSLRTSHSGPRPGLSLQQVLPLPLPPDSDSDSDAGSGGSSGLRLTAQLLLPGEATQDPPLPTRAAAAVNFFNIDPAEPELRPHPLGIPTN

[3] = (§1) Half life in rat liver microsomes; assay type: ADME, Microsome; conditions: liver microsomes
[4] = target: T1, 5-hydroxytryptamine receptor 2C (Homo sapiens) (UniProt P28335); experiment: Inhibition of 5HT2C receptor at 10 uM
T1 sequence (whole entry): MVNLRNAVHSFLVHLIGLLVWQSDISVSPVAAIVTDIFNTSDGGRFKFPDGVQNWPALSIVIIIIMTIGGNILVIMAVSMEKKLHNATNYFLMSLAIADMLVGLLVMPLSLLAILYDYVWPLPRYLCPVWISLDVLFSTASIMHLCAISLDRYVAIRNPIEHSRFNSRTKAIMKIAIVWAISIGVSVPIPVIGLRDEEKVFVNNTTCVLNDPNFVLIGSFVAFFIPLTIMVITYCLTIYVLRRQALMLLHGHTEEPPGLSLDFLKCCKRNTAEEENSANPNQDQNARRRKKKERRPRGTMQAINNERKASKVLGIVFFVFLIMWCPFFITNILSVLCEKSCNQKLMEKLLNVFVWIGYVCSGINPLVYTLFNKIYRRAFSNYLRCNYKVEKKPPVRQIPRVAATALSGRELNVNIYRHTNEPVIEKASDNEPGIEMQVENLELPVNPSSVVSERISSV

[5] = target: T2, 5-hydroxytryptamine receptor 4 (Homo sapiens, UniProt Q13639); experiment: Agonist activity at human 5HT4C receptor expressed in a cell line expressing receptor at 10 fold physiological-level assessed as cAMP accumulation; assay type: functional
T2 sequence (Q13639 whole entry): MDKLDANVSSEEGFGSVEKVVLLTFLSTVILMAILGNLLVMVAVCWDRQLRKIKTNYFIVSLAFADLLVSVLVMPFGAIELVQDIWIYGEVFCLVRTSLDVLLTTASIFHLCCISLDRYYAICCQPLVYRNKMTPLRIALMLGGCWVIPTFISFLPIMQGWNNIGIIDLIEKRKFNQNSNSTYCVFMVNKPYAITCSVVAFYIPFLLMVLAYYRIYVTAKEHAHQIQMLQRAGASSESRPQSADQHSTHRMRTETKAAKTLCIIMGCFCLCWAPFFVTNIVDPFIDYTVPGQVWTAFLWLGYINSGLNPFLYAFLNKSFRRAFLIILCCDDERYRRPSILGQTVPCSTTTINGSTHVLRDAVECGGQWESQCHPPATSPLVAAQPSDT

[6] = Permeability across human Caco2 cells; assay type: ADME, cell-based; conditions: Caco-2, read-out: Kp
[7] = target: T2, 5-hydroxytryptamine receptor 4; experiment: 5-HT4C receptor-mediated exchange of GDP for europium labeled GTP (intrinsic activity)
Homo sapiens = species: Homo sapiens; experiment: Selectivity ratio of Ki for human 5HT3A receptor to Ki for human 5HT4C receptor
[8] = target: T2, 5-hydroxytryptamine receptor 4; experiment: 5-HT4C receptor-mediated exchange of GDP for europium labeled GTP (pEC50)
hERG (KCNH2) = hERG (KCNH2) (Homo sapiens, UniProt Q12809); experiment: Inhibition of human ERG expressed in CHO cells at 3 uM; assay type: cell-based; conditions: CHO cells expressing human ERG
hERG (KCNH2), sequence (Q12809 whole entry): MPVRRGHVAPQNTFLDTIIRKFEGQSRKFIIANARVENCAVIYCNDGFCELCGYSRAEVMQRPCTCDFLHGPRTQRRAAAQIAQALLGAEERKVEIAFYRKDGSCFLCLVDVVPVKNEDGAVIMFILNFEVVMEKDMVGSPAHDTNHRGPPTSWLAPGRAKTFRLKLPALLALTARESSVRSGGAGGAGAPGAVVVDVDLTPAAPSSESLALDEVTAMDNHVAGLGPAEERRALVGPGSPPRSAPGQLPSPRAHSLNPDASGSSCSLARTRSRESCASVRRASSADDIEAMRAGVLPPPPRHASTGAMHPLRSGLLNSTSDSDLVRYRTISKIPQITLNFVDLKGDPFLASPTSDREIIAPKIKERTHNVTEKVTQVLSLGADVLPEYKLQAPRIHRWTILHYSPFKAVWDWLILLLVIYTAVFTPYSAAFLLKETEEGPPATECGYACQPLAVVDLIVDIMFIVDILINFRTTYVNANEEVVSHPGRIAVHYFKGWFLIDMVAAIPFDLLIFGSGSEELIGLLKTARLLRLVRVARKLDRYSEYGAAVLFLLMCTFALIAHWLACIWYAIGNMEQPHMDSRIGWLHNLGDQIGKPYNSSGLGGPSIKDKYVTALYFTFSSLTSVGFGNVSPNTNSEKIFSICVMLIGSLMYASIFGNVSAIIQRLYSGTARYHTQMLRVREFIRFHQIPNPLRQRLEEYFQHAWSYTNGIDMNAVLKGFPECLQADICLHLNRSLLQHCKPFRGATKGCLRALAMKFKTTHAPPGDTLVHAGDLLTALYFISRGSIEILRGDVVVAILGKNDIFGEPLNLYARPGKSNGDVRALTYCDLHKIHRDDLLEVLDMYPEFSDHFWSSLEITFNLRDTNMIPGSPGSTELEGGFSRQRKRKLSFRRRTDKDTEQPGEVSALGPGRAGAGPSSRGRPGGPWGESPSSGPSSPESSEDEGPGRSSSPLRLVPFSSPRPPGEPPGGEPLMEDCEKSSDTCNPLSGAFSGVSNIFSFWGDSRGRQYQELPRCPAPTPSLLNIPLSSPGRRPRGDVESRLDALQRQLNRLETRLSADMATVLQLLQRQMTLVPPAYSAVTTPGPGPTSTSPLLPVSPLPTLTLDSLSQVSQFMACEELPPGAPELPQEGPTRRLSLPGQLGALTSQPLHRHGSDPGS

[9] = Oral bioavailability in Sprague-Dawley rat at 5 mg/kg; assay type: ADME, organism-based; conditions: in vivo
Cavia porcellus = experiment: Agonist activity at 5HT4 receptor in sc dosed guinea pig assessed as decrease in colonic transit time of carmine red dye after 60 mins relative to vehicle treated control; assay type: functional, organism-based
[10] = AUC (0 to t) in Sprague-Dawley rat at 5 mg/kg, po; assay type: ADME, organism-based; parameters: dose 5 mg/kg, route oral; conditions: plasma
[11] = target: T2, 5-hydroxytryptamine receptor 4; experiment: Intrinsic activity at human 5HT4C receptor expressed in a cell line expressing receptor at 10 fold physiological-level assessed as cAMP accumulation relative to 5HT; assay type: functional
[12] = target: 5-hydroxytryptamine receptor 4 (Cavia porcellus, UniProt O70528); experiment: Agonist activity at 5HT4 receptor in guinea pig colon assessed as longitudinal muscle plexus contraction
5-hydroxytryptamine receptor 4 (Cavia porcellus, UniProt O70528), sequence (O70528 whole entry): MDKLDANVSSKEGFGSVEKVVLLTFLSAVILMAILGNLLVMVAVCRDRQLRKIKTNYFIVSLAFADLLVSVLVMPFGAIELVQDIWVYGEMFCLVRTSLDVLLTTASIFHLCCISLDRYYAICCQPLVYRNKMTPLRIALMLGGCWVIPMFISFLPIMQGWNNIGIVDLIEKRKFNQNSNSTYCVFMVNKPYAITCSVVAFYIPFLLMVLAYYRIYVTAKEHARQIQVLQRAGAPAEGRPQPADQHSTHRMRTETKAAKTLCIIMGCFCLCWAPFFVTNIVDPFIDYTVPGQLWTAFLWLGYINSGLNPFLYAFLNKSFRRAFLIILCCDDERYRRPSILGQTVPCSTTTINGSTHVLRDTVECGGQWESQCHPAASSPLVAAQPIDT

[13] = Half life in Sprague-Dawley rat at 5 mg/kg, po; assay type: ADME, organism-based; parameters: dose 5 mg/kg, route oral; conditions: in vivo
Rattus norvegicus [14] = experiment: 5-HT4 receptor-mediated esophageal relaxation in anesthetized rat (following i.v. administration) using digital sonomicrometry; assay type: functional; conditions: Sprague-Dawley
[15] = target: T2, 5-hydroxytryptamine receptor 4; experiment: Agonist activity at human 5HT4C receptor expressed at 100 fold physiological-level in HEK293 cells assessed as cAMP accumulation; assay type: functional, cell-based
[16] = target: 5-hydroxytryptamine receptor 2B (Homo sapiens) (UniProt P41595); experiment: Inhibition of 5HT2B receptor at 10 uM
5-hydroxytryptamine receptor 2B (Homo sapiens), sequence (P41595 whole entry): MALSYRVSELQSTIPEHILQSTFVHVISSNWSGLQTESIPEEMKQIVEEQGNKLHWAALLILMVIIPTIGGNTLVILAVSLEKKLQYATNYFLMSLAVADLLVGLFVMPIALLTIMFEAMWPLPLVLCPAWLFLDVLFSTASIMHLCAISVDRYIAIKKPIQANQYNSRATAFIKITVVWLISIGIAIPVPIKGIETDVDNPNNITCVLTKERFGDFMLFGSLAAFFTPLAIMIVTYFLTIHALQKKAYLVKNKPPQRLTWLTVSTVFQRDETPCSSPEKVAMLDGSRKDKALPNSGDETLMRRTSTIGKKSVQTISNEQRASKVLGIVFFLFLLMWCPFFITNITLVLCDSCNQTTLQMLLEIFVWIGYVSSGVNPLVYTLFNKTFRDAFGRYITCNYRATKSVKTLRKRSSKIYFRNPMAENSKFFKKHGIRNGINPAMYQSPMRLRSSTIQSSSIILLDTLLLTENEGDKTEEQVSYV

[17] = target: T2, 5-hydroxytryptamine receptor 4; experiment: biochemical
Description: Displacement of [3H]GR113808 from human recombinant 5HT4C receptor expressed in HEK293 cells

[18] = target: T3, 5-hydroxytryptamine receptor 1A (Homo sapiens) (UniProt P08908); experiment: Inhibition of 5HT1A receptor at 10 uM
T3 sequence (whole entry): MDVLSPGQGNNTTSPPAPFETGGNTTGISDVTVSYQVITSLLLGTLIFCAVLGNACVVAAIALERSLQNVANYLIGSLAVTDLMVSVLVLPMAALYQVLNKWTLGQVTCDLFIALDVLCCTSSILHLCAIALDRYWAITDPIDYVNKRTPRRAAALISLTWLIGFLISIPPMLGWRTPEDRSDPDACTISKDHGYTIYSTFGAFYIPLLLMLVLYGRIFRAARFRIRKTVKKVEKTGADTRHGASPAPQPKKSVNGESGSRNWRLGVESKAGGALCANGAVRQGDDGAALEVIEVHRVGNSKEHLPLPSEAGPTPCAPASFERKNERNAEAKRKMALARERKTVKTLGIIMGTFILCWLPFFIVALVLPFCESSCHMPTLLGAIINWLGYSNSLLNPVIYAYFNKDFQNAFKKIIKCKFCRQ

[19] = Cmax in Sprague-Dawley rat at 5 mg/kg, po; assay type: ADME, organism-based; parameters: dose 5 mg/kg, route oral; conditions: in vivo
[20] = target: 5-hydroxytryptamine receptor 1B (Homo sapiens) (UniProt P28222); experiment: Inhibition of 5HT1B receptor at 10 uM
5-hydroxytryptamine receptor 1B (Homo sapiens), sequence (P28222 whole entry): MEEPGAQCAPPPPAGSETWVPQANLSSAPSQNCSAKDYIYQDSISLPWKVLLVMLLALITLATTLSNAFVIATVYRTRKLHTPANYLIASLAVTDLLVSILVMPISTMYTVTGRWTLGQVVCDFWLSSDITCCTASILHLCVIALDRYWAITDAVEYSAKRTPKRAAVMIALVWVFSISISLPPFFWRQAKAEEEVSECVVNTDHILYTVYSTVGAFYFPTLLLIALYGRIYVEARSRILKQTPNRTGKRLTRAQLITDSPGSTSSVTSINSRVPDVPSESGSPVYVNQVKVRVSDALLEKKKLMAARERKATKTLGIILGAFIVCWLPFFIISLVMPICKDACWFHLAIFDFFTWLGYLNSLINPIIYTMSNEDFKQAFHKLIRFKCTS

[21] = target: T4, 5-hydroxytryptamine receptor 3A (Homo sapiens) (UniProt P46098); experiment: Inhibition of 5HT3A receptor at 10 uM
T4 sequence (whole entry): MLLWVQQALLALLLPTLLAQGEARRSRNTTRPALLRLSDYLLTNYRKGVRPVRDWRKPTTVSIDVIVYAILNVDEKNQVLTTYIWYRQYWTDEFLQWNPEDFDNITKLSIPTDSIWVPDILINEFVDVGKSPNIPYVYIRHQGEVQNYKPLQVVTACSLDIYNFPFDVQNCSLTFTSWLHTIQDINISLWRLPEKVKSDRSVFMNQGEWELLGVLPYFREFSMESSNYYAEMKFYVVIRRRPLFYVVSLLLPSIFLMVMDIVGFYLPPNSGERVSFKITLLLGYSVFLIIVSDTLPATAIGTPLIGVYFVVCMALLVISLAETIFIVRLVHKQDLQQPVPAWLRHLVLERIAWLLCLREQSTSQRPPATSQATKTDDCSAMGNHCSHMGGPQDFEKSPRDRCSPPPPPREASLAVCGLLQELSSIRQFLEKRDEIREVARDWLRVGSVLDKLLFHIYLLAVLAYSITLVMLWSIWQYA

[22] = target: T2, 5-hydroxytryptamine receptor 4; experiment: Intrinsic activity at human 5HT4C receptor expressed at 100 fold physiological-level in HEK293 cells assessed as cAMP accumulation relative to 5HT; assay type: functional, cell-based
[23] = target: 5-hydroxytryptamine receptor 5A (Homo sapiens) (UniProt P47898); experiment: Inhibition of 5HT5A receptor at 10 uM
5-hydroxytryptamine receptor 5A (Homo sapiens), sequence (P47898 whole entry): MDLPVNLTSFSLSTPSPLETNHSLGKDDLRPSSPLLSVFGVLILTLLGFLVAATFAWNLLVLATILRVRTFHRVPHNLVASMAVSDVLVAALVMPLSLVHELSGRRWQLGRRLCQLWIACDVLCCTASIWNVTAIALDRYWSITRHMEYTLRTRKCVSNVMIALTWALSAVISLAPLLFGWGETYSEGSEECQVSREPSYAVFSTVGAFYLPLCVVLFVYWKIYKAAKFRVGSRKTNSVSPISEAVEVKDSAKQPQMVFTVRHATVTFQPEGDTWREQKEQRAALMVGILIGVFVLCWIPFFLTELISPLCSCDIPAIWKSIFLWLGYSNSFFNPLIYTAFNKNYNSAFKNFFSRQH

[24] = target: 5-hydroxytryptamine receptor 7 (Homo sapiens) (UniProt P34969); experiment: Inhibition of 5HT7 receptor at 10 uM
5-hydroxytryptamine receptor 7 (Homo sapiens), sequence (P34969 whole entry): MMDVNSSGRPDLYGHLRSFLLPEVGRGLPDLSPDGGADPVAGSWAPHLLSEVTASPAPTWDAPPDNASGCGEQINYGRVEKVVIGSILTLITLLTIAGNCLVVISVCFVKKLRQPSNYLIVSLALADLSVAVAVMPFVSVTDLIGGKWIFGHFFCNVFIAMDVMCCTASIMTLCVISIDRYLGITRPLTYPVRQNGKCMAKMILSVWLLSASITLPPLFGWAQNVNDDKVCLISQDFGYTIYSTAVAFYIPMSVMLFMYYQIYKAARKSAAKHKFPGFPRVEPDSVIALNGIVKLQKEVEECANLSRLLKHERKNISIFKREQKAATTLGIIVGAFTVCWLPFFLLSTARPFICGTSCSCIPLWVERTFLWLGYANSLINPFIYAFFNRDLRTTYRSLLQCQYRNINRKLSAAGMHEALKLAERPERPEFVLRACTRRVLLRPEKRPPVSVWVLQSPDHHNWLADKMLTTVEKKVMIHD

[25] = target: 5-hydroxytryptamine receptor 2A (Homo sapiens) (UniProt P28223); experiment: Inhibition of 5HT2A receptor at 10 uM
5-hydroxytryptamine receptor 2A (Homo sapiens), sequence (P28223 whole entry): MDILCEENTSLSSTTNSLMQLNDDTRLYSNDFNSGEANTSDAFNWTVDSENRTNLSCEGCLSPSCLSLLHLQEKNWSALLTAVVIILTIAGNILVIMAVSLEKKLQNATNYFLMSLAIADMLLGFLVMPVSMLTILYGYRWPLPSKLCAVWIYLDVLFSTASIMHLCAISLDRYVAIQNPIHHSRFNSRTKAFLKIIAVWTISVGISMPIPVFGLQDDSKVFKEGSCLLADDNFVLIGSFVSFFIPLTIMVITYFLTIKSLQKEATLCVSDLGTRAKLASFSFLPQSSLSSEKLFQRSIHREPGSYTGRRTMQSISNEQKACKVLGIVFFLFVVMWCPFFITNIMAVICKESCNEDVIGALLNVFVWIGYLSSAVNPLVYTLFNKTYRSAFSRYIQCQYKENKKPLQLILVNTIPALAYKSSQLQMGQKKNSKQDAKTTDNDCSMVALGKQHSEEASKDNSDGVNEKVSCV

[26] = target: 5-hydroxytryptamine receptor 1D (Homo sapiens) (UniProt P28221); experiment: Inhibition of 5HT1D receptor at 10 uM
5-hydroxytryptamine receptor 1D (Homo sapiens), sequence (P28221 whole entry): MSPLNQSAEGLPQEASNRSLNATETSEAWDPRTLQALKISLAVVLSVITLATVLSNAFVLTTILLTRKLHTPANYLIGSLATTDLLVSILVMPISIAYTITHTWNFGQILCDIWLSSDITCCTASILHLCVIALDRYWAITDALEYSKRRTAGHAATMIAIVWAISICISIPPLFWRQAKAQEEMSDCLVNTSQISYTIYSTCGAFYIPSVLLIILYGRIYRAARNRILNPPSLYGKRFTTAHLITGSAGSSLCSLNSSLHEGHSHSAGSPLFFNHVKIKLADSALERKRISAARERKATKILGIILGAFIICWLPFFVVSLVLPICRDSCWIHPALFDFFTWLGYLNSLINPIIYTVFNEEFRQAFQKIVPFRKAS

Liver microsomes = experiment: as §1; assay type: ADME, Microsome; conditions: microsomes

CC(=O)N1CCN(CCN2[C@@H]3CC[C@H]2C[C@@H](NC(=O)c2nn(C(C)C)c4ccccc24)C3)CC1
Activity (Rattus norvegicus [1]): Dose-dependent effect
inhibition [2]: < 50%
half-life [3]: > 1.5 h
inhibition [4]: < 50%
EC50 [5]: 10 nM
Papp [6]: 31 ×10⁻⁶ cm/s
Intrinsic activity [7]: 57%
Ratio Ki (Homo sapiens): 980
EC50 [8]: 6.31 nM
inhibition at 3 µM (hERG (KCNH2)): 9%
bioavailability [9]: > 100%
Activity (Cavia porcellus): Active
AUC(0-t) [10]: 730 ng·h/mL
Intrinsic activity [11]: 53%
EC50 [12]: 10 nM
half-life [13]: 3.2 h
Activity (Rattus norvegicus [14]): Dose-dependent effect
ED50 (Rattus norvegicus [14]; iv): 0.0378 mg/kg
EC50 [15]: 2.51 nM
inhibition [16]: < 50%
Ki [17]: 10 nM
inhibition [18]: < 50%
Cmax [19]: 254 ng/mL
inhibition [20]: < 50%
inhibition [21]: < 50%
Intrinsic activity [22]: 83%
inhibition [23]: < 50%
inhibition [24]: < 50%
inhibition [25]: < 50%
inhibition [26]: < 50%

CC(C)n1nc(C(=O)N[C@H]2C[C@H]3CC[C@@H](C2)N3CCCCCCN2CCC(CNS(C)(=O)=O)CC2)c2ccccc21
Ratio Ki (Homo sapiens): 4.3
EC50 [15]: 1.58 nM
Ki [17]: 1.58 nM
Intrinsic activity [22]: 91%

CCCCCNC(=N)N/N=C/c1c[nH]c2ccc(OC)cc12 [TEGASEROD]
pEC50 [5]: 8.7
Intrinsic activity [7]: 71%
Ratio Ki (Homo sapiens): 580
EC50 [8]: 15.8 nM
inhibition at 3 µM (hERG (KCNH2)): 33%
Activity (Cavia porcellus): inactive
Intrinsic activity [11]: 99%
EC50 [12]: 6.31 nM
EC50 [15]: 1 nM
Intrinsic activity [22]: 115%

CC(C)n1nc(C(=O)N[C@H]2C[C@H]3CC[C@@H](C2)N3)c2ccccc21
Ratio Ki (Homo sapiens): < 1

CC(C)n1nc(C(=O)N[C@H]2C[C@H]3CC[C@@H](C2)N3CC(O)CN2CCCCC2)c2ccccc21 (stereo partly drawn)
half-life [3]: > 1.5 h
Papp [6]: 30 ×10⁻⁶ cm/s
Ratio Ki (Homo sapiens): 13000
inhibition at 3 µM (hERG (KCNH2)): 62%
EC50 [15]: 2 nM
Ki [17]: 2 nM
Intrinsic activity [22]: 85%

CC(C)n1nc(C(=O)N[C@H]2C[C@H]3CC[C@@H](C2)N3CCCCCCN2CCCCC2)c2ccccc21
Ratio Ki (Homo sapiens): 12
EC50 [15]: 2.51 nM
Ki [17]: 1 nM
Intrinsic activity [22]: 102%

CC(C)N(C)CCCCCCN1[C@@H]2CC[C@H]1C[C@@H](NC(=O)c1nn(C(C)C)c3ccccc13)C2
Ratio Ki (Homo sapiens): 23
EC50 [15]: 5.01 nM
Ki [17]: 1 nM
Intrinsic activity [22]: 92%

COc1cc(N)c(Cl)cc1C(=O)N[C@H]1CCN(CCCOc2ccc(F)cc2)C[C@H]1OC (relative stereo) [REL-CISAPRIDE]
t1/2 (Liver microsomes): 0.783 h
Intrinsic activity [22]: 117%

CC(C)n1nc(C(=O)N[C@H]2C[C@H]3CC[C@@H](C2)N3CC(O)CN2CCC(CNS(C)(=O)=O)CC2)c2ccccc21 (stereo partly drawn)
half-life [3]: > 1.5 h
Papp [6]: 1 ×10⁻⁶ cm/s
Ratio Ki (Homo sapiens): 19000
EC50 [15]: 0.631 nM
Ki [17]: 2.51 nM
Intrinsic activity [22]: 93%
